According to patent publication US12156860B2, “Disorders implicating PUFA oxidation” (BioJiva LLC, priority 2011, dated 2024):

Key:
[1] = tested on: rat hearts; assay: Langendorf isolated heart perfusion model, echo- and electrocardiography; format: in vivo; conditions: rats, 8 weeks supplementation
Experimental: Test compounds disclosed herein can also be assessed using the Langendorf isolated heart perfusion model. […] Following the treatment period, rat hearts are analyzed by echocardiography for measurement of muscle thickness of the left ventricle, left atrium, right ventricle, and right atrium and electrocardiography for measuring electrical activity. After live evaluation, rats are humanely sacrificed and their hearts isolated and connected to the Langendorf isolated perfusion system (See Jennings et al., Am. Surg. 2004; 70(9), 797-800). Left ventricular pressure is then measured with a left ventricular balloon. Coronary flow is also measured. Cardiac function is further assessed by determining the effect of administration of test compounds on the rate of contraction and relaxation of the heart. To determine whether any observed effects on cardiac function are due to the effect of the test compound on mitochondrial function, mitochondrial activity pre-ischemia and post-ischemia is assessed for each of the treatment groups.

[2] = tested on: Wild-type yeast cells; assay: C11-Bodipy 581/591 lipid peroxidation in copper-stressed yeast; format: cell-based, S. cerevisiae; conditions: 200 μM fatty acid 2 hours, then 50 μM CuSO4 60 min
Experimental: Wild-type yeast cells were treated as described above except the yeast were treated with 200 μM of the designated fatty acid for 2 hours, washed with sterile water, and were either not treated (triangles) or treated with 50 μM CuSO4 (squares) at room temperature. After 60 min of copper treatment cells were treated with 8 μM C11-Bodipy 581/591 for 30 min at room temperature. Four 100 μl aliquots were plated in a 96-well plate and the fluorescence was measured.

[3] = tested on: Q-less coq3 yeast; assay: Yeast incubated with different ratios of H- and D-PUFA, plate dilution; format: cell-based, S. cerevisiae; conditions: 200 μM total LA and D2-LA at different ratios
Experimental: FIG. 9. […] Wild-type, yeast Q-less coq3, or respiratory deficient cor1 null mutants were incubated in the presence of 200 μM of LA and D2-LA at different ratios of PUFAs. Serial dilutions (1:5) starting at 0.2 OD/ml were spotted on YPD solid plate medium. A zero-time untreated control is shown on the top left. Growth at 30° C.
FIG. 10. […] Serial dilutions (1:5) starting at 0.2 OD/ml were spotted on YPD solid plate medium. Growth at 30° C.
Wild-type, yeast Q-less coq3, or respiratory deficient cor1 null mutants were incubated in the presence of 200 μM of LA and D2-LA at different ratios of PUFAs, as indicated in FIG. 9. Serial dilutions (1:5) starting at 0.2 OD/ml were spotted on YPD solid plate medium. […] Growth was at 30° C.
Serial dilutions (1:5) starting at 0.2 OD/ml were spotted on YPD solid plate medium. Growth was at 30° C.

[4] = tested on: alcoholic liver disease rats; assay: Alcoholic liver disease and cirrhosis induced by 5% ethanol diet; format: in vivo, Rattus norvegicus, Wistar; conditions: 5% ethanol diet rats, daily over three months
Experimental: Fifty male heterozygous rats, 45-days-old, from the Rattus norvegicus species and Wistar lineage are kept in polypropylene cages, in groups of five animals, under a 12 h-clear/dark cycle and under controlled temperature conditions. The induction of alcoholic liver disease and cirrhosis is carried out through a diet containing 5% ethanol […]. […] During the study period, the animals are weighed on a weekly basis and the drugs dose is readjusted as necessary. On the first day of the study, besides determining the animals' weight, their blood is collected through retro-orbital plexus puncture for biochemical analysis: alanine-aminotransferase (ALT) and aspartate-aminotransferase (AST) (colorimetric test, using the Labtest kit). One day after concluding the induction period and compound administration (90 days), the animals are sacrificed by decapitation. Once more, each animal's blood is collected for biochemical analysis. Then, laparotomy with total hepatectomy and liver preparation are carried out for lipoperoxidation (LPO) and histological analysis. Liver tissue samples are analyzed using the thiobarbituric-acid reactant substance (TBARS) measurement according to known methods (See Lowry et al. Protein measurement with the folin phenol reagent. J Biol Chem. 1951; 193:265-75) and the results are expressed in nmol of malondialdehyde/mg of protein. Slides with liver fragments are also dyed with hematoxilin-eosine and picrosirius, in order to evaluate the fibrosis level, and with Perls to evaluate the presence of iron stores, having been examined by an only pathologist blinded to the animals' data.

[5] = tested on: stroke-prone spontaneously hypertensive (SHRSP) rat; assay: SHRSP rat model of hypertension; format: in vivo; conditions: SHRSP rats, 8 weeks
Text: The stroke-prone spontaneously hypertensive (SHRSP) rat model of hypertension, which has been previously described (McIntyre et al., 1997 Hypertension 30:1517; Alexander et al., 1999 Cardiovasc. Res. 43:798; Fennell et al., 2002 Gene Ther. 9:110), can be used for the assessment of a compound's ability to mitigate hypertension.

[6] = Oxidation of mixtures of LA and D2-LA in chlorobenzene; format: physicochemical
Experimental: FIG. 8. Dependence of the rate of oxidation of the mixture of LA and D2-LA in chlorobenzene solution on mixture composition. Conditions: [LA]+[11,11-d2-LA]=0.775 M; [AMVN]=0.0217 M; 37° C. RIN=(1.10±0.08)×10^−7 M/sec.
To simulate the likely in vivo conditions, the kinetics of the oxidation of the mixtures of D2-LA and LA were studied (FIG. 8). In the experiments, the concentration of LA plus 11,11-d2-LA was 0.775 M; the concentration of AMVN was 0.0217 M; and the reactions were carried out at 37° C. The results afforded an RIN of 1.10±0.08×10^−7 M/sec.

[7] = Kinetics of O2 consumption during AMVN-initiated oxidation in chlorobenzene (glass capillary microvolumeter); format: physicochemical
Experimental: FIG. 7. Kinetics of O2 consumption accompanied the oxidation of 0.71 M LA (plots 1 and 2) and 0.71 M D2-LA (plot 3) in chlorobenzene initiated by 40 mM AMVN at 37° C. Plot 2-0.23 mM HPMC was added to 0.71 M LA.
The kinetics of oxygen consumption during the oxidation of LA and D2-LA was studied with a glass capillary microvolumeter (FIG. 7). The rate of oxidation, ROX, was measured as a slope of [O2] traces. The rate of initiation, RIN, was determined by the inhibitor method with HPMC (“6-hydroxy-2,2,5,7,8-pentamethylbenzochroman”) as a reference inhibitor. RIN was calculated from the induction period of inhibited oxidation, tIND: RIN=2·[HPMC]/tIND. […] When the process was inhibited by 0.23 mM chain-breaking antioxidant HPMC, the duration of the induction period, tIND, was about 48 min, with the RIN value of around 0.16×10^−6 M/s. […] The latter precludes a direct determination of RIN. […] An estimated kinetic isotope effect (“KIE”), from comparison of ROX for LA and D2-LA, was around 6.1×10^−6/0.18×10^−6≈35. A similar KIE was determined during the oxidation of LA and 11,11-d2-LA in Triton X-100 aqueous micelles (data not shown). For comparative purposes, the theoretical KIE is 6.9 at 25° C. See Carpenter, “Determination of Organic Reaction Mechanisms” (John Wiley & Sons, 1984), p. 89.

SMILES: [2H]C([2H])(/C=C\CCCCC)/C=C\CCCCCCCC(=O)O [D2-LA, 11,11-Dideutero-cis,cis-9,12-Octadecadienoic acid]
- symptoms and markers associated with cardiac disorders [1]: reduce symptoms and markers associated with cardiac disorders
- levels of lipid peroxidation (C11-Bodipy fluorescence) [2]: lower levels of lipid peroxidation similar to yeast not treated with PUFA
- sufficiently minimal amount to cancel the toxicity of LA [3]: 10-15%
- amount of MDA in liver samples (TBARS) [4]: reduce the amount of MDA found in liver samples
- histological signs of fatty liver disease [4]: reverse the histological signs of fatty liver disease
- systolic blood pressure [5]: reduction in systolic blood pressure
- effect during oxidation of mixture with non-deuterated methyl linoleate ([6]; data not shown): qualitatively similar effect
- effect on autoxidation of non-deuterated LA in mixture ([6]; mixtures of D2-LA and LA): ‘protects’ the non-deuterated LA against autoxidation
- rate of oxidation, ROX ([7]; 0.71 M in chlorobenzene, 40 mM AMVN, 37° C.): 1.8e-07 M/s
- kinetic isotope effect (KIE) from comparison of ROX for LA and D2-LA ([7]; chlorobenzene, 37° C.): ≈ 35
- length of the kinetic chain, ROX/RIN ([7]; for D2-LA assuming RIN comparable to that of LA): ≈ 1.1
